In patent publication US8410049B2, “Methods and kits for preventing hypoglycemia” (Cebix, priority 2009, dated 2013):

Experiment: Bioavailability and expected plasma concentration of subcutaneously administered C-peptide
Type: in vivo, human
Conditions: low dose 500 nmoL/24 h given 4 times daily
Procedure: The dose selection is based on data from previous studies, in which C-peptide has been replaced for 3 months (600 nmoL/24 h) and an effect on albumin excretion and sensory nerve conduction velocity has been observed (Johansson et al., 2000; Ekberg et al., 2003). In order to maintain adequate levels of C-peptide for as many hours of the day as possible, the daily dose was divided into four doses, injected subcutaneously using Disetronic Pen 25, and administered in the morning, at lunch, at dinner, and at bedtime. […] To determine if C-peptide at a higher dose has an optimal effect, a 3 times higher dose (1,500 nmoL/24 h) was also administered.
The low-dose regimen was expected to give a mean physiological plasma concentration of ˜1 nmoL/L during the 24 h period. The high dose regimen was expected to result in concentrations ˜3 times those of the low dose regimen. The actual exposure is described in section above on “C-peptide concentrations”. […] The sampling of C-peptide in plasma at visits 2 and 4 coincided with the clinical visit and the time between the most recent administration of the trial drug and sampling varied between patients. Thereby, the results of C-peptide concentrations in plasma became less suitable for pharmacokinetic evaluations.

CC(C)C[C@H](NC(=O)[C@H](C)NC(=O)[C@H](CC(C)C)NC(=O)[C@@H]1CCCN1C(=O)[C@H](CCC(N)=O)NC(=O)[C@H](CC(C)C)NC(=O)[C@H](CO)NC(=O)CNC(=O)[C@H](C)NC(=O)CNC(=O)[C@@H]1CCCN1C(=O)CNC(=O)CNC(=O)CNC(=O)[C@H](CC(C)C)NC(=O)[C@H](CCC(=O)O)NC(=O)[C@@H](NC(=O)[C@H](CCC(N)=O)NC(=O)CNC(=O)[C@@H](NC(=O)[C@H](CCC(N)=O)NC(=O)[C@H](CC(C)C)NC(=O)[C@H](CC(=O)O)NC(=O)[C@H](CCC(=O)O)NC(=O)[C@H](C)NC(=O)[C@@H](N)CCC(=O)O)C(C)C)C(C)C)C(=O)N[C@@H](CCC(=O)O)C(=O)NCC(=O)N[C@@H](CO)C(=O)N[C@@H](CC(C)C)C(=O)N[C@@H](CCC(N)=O)C(=O)O [C-peptide, Recombinant human C-peptide]
Expected physiological mean plasma concentration: ~1 nmoL/L
